US12570697B2, “Cyclic peptide useful in the treatment of cancer” (Syntherix Limited, priority 2019, dated 2026)
“Also recorded” adds a separate entry of the source. Square brackets hold non-standard residues; d marks the D form. Ends that are not written are not given here. Sar = CNCC(=O)O

What was measured:
[1] = test system: human non-small cell lung cancer cells (NCIH-460); assay: killing of NCIH-460 cells by CLIPS-cyclised peptides of different warhead length (Table 1); type: cell-based
Description: The inventor undertook testing of the effect of various peptides which were cyclised using CLIPS technology on the killing of human non-small cell lung cancer cells (NCIH-460) in vitro. For each of the peptides, between two and four isomer fractions were received, giving a total of 12 peptide entities tested.
The following warhead lengths, obtained by adding flanking sarcosine residues, were tested: […]

NCI-H460 cells [2] = assay: viability assay of CLIP cyclised peptides on NCI-H460 cells (Example 3, Table 2); type: cell-based, human; conditions: for cytotoxic activity against NCIH460 cells (in words): with and without Nanocin-PRO
Description: (§1) The following protocol was used: • 1) NCI-H460 cells were grown in Ham's F12 media supplemented with 10% FBS. • 2) Cells were harvested and seeded into 96-well plates at 500 cells per well. • 3) Peptides were diluted 1:2 from DMSO stock solutions to generate a 9-point dose range from a top concentration of 300 μM. Final DMSO concentration was constant at 1% (v/v). • 4) In line with the supplied Nanocin-PRO protocol, diluted peptides were incubated with Nanocin-PRO in media for 20 minutes prior to addition to cells. Nanocin-PRO was used at a final assay concentration of 0.2 μl per well. • 5) Cells were grown in the presence of peptide for 96 hours at 37° C., 5% CO2 in a humidified atmosphere. • 6) After 96 h, Alamar blue 10% (v/v) was added, incubated for a further 4 h and fluorescent product detected using a BMG FLUOstar plate reader. • 7) Media only background readings were subtracted before data was analysed using a 4-parameter logistic equation in GraphPad Prism.
Viability assays of the CLIP cyclised peptides were performed to examine the effect of four HILRa clipped peptides on the viability of NCIH460 cells (up to three isomers for each of the peptides). […] Results for HILRa 16A, 16B, 16C and HILRa 17A, 17B and 17C are depicted in FIG. 2.
Assays were performed in the presence and absence of the peptide transfection reagent Nanocin-PRO.

[3] = test system: H460 human non-small cell lung cancer cell lines; conditions: cited from earlier work
[4] = test system: RT112 bladder cancer cell line; conditions: WO 2016/020437; cited from earlier work
MRC-5 cells = conditions: in vitro; WO 2016/020437; cited from earlier work
NCI-H460 cells [5] = assay: NCI-H460 cell viability assay, glycosylated versus unglycosylated peptide (Example 4); type: cell-based, human; conditions: 0.2 μl Nanocin-Pro per well
Description: The inventor next undertook testing to determine whether the cytotoxicity of the peptides of the invention could be increased by glycosylation of the peptides. NCI-H460 cell viability assays were performed to compare the effect of a glycosylated clipped peptide (HILRa-Glu-01) versus the un-glycosylated version (HILRa-CL-17, HILRa-CL-17 was used in this study as a 1:1:1 mix of the three isomers HILRa-CL-17A, HILRa-CL-17B and HILRa-CL-17C).
Assays were performed in the presence and absence of the peptide transfection agent Nanocin-Pro.
as §1, with “HILRa peptides” for “Peptides”, “[…] Nanocin-Pro” for “Final DMSO concentration was constant at 1% (v/v). • 4) In line with the supplied Nanocin-PRO protocol, diluted peptides were incubated with Nanocin-PRO in media for 20 minutes prior to addition to cells. Nanocin-PRO”

[6] = 0.2 μl Nanocin-PRO per well, 96 h

Compound	% inhibition at 1 mM ([1]; 0.2 μl Nanocin-PRO per well) [%]	% inhibition at 1 mM ([1]; No Nanocin-PRO) [%]	other results
Ac-CPKGPRPC-NH2 [HILRa-CL-04]	8.5	0.0	–
CC(=O)O[C@H]1C(=O)[C@@]2(C)[C@H]([C@H](OC(=O)c3ccccc3)[C@]3(O)C[C@H](OC(=O)[C@H](O)[C@@H](NC(=O)c4ccccc4)c4ccccc4)C(C)=C1C3(C)C)[C@]1(OC(C)=O)CO[C@@H]1C[C@@H]2O [Paclitaxel, reference compound]	–	–	IC50 (NCI-H460 cells [2]; Homo sapiens, NCI-H460, Paclitaxel control, No Nanocin-PRO column): 4.95 nM; IC50 ([1]; Homo sapiens, NCI-H460, Paclitaxel control, printed in the 0.2 μl Nanocin-PRO per well column): 7.4 nM
PRGPRPVALKLALKLAL [HILR-001]	–	–	IC50 ([3]; as described in WO 2009/112536): 200000 nM; killing of H460 cells versus primary diploid human fibroblasts, keratinocytes or MRC5 cells ([3]; in vitro, WO 2009/112536): selective killing
Ac-C[Sar]PKGPKP[Sar]C-NH2 (CXPKGPKPXC; N-acetyl; C-amide; sarcosines; HILRa-CL-11 Synthesized; Sar (2)..(2) X = Sarcosine; Sar (9)..(9) X = Sarcosine)	1.2	0.0	–
Ac-C[Sar]PKGPRP[Sar]C-NH2 (CXPKGPRPXC; N-acetyl; C-amide; sarcosines; HILRa-CL-05 Synthesized; Sar (2)..(2) X = Sarcosine; Sar (9)..(9) X = Sarcosine)	1.1	0.0	–
Ac-C[Sar][Sar]PKGPRP[Sar][Sar]C-NH2 (CXXPKGPRPXXC; N-acetyl; C-amide; sarcosines; HILRa-CL-06 Synthesized; Sar (2)..(2) X = Sarcosine; Sar (3)..(3) X = Sarcosine; Sar (10)..(10) X = Sarcosine; Sar (11)..(11) X = Sarcosine)	6.1	0.0	–
Ac-C[Sar][Sar]PRGPRP[Sar][Sar]C-NH2 (CXXPRGPRPXXC; N-acetyl; C-amide; sarcosines; HILRa-CL-03 Synthesized; Sar (2)..(2) X = Sarcosine; Sar (3)..(3) X = Sarcosine; Sar (10)..(10) X = Sarcosine; Sar (11)..(11) X = Sarcosine)	9.5	0.0	–
PRGPRPVWWRRWWRRWW [HILR-PRO-25]	–	–	IC50 [4]: 10000 nM; lethality in MRC-5 cells (MRC-5 cells): without lethality
Ac-C[Sar][Sar]PKGPKP[Sar][Sar]C-NH2 (CXXPKGPKPXXC; N-acetyl; C-amide; sarcosines; HILRa-CL-12 Synthesized; Sar (2)..(2) X = Sarcosine; Sar (3)..(3) X = Sarcosine; Sar (10)..(10) X = Sarcosine; Sar (11)..(11) X = Sarcosine)	0.8	0.0	–
Ac-CPRGPRPC-NH2 [HILRa-CL-01, CLIPS-cyclised peptide]	12.9	0.0	% inhibition at 1 mM ([1]; 0.2 μl Nanocin-PRO per well, listed as ‘clipped’ Pro-Arg-Gly-Pro-Arg-Pro warhead): over 10%
Ac-CPKGPKPC-NH2 [HILRa-CL-10]	0.8	2.2	–
Ac-C[Sar]PRGPRP[Sar]C-NH2 (CXPRGPRPXC; N-acetyl; C-amide; sarcosines; HILRa-CL-02 Synthesized; Sar (2)..(2) X = Sarcosine; Sar (9)..(9) X = Sarcosine)	2.0	0.0	–
Ac-C[Sar]PRGPKP[Sar]C-NH2 (CXPRGPKPXC; N-acetyl; C-amide; sarcosines; HILRa-CL-08 Synthesized; Sar (2)..(2) X = Sarcosine; Sar (9)..(9) X = Sarcosine)	3.2	0.0	–
Ac-CPRGPKPC-NH2 [HILRa-CL-07]	1.5	0.0	–
Ac-CDacHcaSarNapHcaNapC-NH2 [HILRa CL-16-B]	–	–	% inhibition at 300 μM (NCI-H460 cells [2]; [6]): 0.0%; % inhibition at 300 μM (NCI-H460 cells [2]; No Nanocin-PRO, 96 h): 14.1%; cytotoxic activity against NCIH460 cells (in words) (NCI-H460 cells [2]): completely removed the cell killing effect; also recorded: low detectable cancer cell-necrotic activity
COc1ccc2c(C[C@@H]3NC(=O)[C@@H](NC(C)=O)CSCc4cccc(c4)CSC[C@@H](C(N)=O)NC(=O)CC(c4ccc5ccccc5c4)NC(=O)[C@H](CCCNC(=N)N)NC(=O)CC(c4ccc5ccccc5c4)NC(=O)CN(C)C(=O)[C@H](CCCNC(=N)N)NC3=O)cc(=O)oc2c1 (single isomer, unassigned) [HILRa CL-17-B, Ac-C[Dac]R[Sar][Nap]R[Nap]C-NH2]	–	–	% inhibition at 300 μM (NCI-H460 cells [2]; [6]): 99.3%; IC50 (NCI-H460 cells [2]; 0.2 μl Nanocin-PRO per well, 96 h, values in brackets approximate): ~2100 nM; % inhibition at 300 μM (NCI-H460 cells [2]; No Nanocin-PRO, 96 h): 99.2%
Ac-C[Dac]R[Sar][Nap]R[Nap]C-NH2 [HILRa-CL-17]	–	–	cytotoxic activity against NCIH460 cells (in words) (NCI-H460 cells [2]): greater potency than HILRa-CL-15; cytotoxic activity against NCIH460 cells (in words) (NCI-H460 cells [2]; listed as HILRa-CL17): showed activity; activity in the presence of Nanocin-PRO compared to its absence (NCI-H460 cells [5]): much higher activity
Ac-CDacHcaSarProHcaNapC-NH2 [HILRa-CL-14]	–	–	cytotoxic activity against NCIH460 cells (in words) (NCI-H460 cells [2]): negligible activity
Ac-C[Sar][Sar]PRGPKP[Sar][Sar]C-NH2 (cysteine pairing not given here) [HILRa-CL-09]	3.0	1.1	–
